Test results from US20260263450A1, “USE OF GLYT1 INHIBITOR IN TREATMENT OF ORGAN FIBROSIS” (TIANJIN MEDICAL UNIVERSITY, priority 2023, published 2026).

How the values were obtained:
[1] = tested on: bleomycin-induced pulmonary fibrosis; assay: Bleomycin-induced pulmonary fibrosis in mice; format: in vivo, C57BL/6J male mice; details: for collagen deposition in lung tissue (Masson staining): 1 mg/kg and 5 mg/kg BLM; for body weight: inhibitor 0.79 mg/kg per day by gavage for 14 days from day 14 after modeling
Description: The dosage was 0.79 mg/kg per day, and the administration route was intragastric gavage. When used, the drug was dissolved in H2O containing 0.3% Tween 80.
C57BL/6J male mice (8-10 weeks old, weighing 24-25 g) were purchased from Beijing Huafukang Biotechnology Co., Ltd. The mice were housed in a specific pathogen-free (SPF) environment, with the room temperature maintained at 20-25° C. and the humidity controlled at 50-60%. The mice were fed normally, and the light was adjusted to a 12 h light/dark cycle. Before modeling, the mice were acclimatized to the corresponding environment for 1 week. All animal experiments were conducted in compliance with the animal care regulations and guidelines of Tianjin Medical University and were approved by the Animal Committee of Tianjin Medical University.
1. Prediluted bleomycin was prepared, and doses of 1 mg/kg and 5 mg/kg were administered on the basis of the body weights of the mice.
7. The mouse's tongue was gently pulled to one side toward the mandible with sterile padded forceps to expose the vocal cords; then, the pipette tip loaded with bleomycin was lowered to the back of the oral cavity, and the liquid was delivered through the vocal cords during inhalation. The sounds of wheezing were waited to confirm that the liquid was delivered into the trachea. For animals in the control group, an equal volume of sterile PBS was used instead of the bleomycin solution.
10. The mice were monitored daily until they were euthanized for analysis. RG1678 or water containing 0.3% Tween 80 was added to the mice by gavage every day according to their groupings.
11. When the experiment reached the appropriate time point, the mice were euthanized, their eyeballs were removed for blood collection, and then the mice were dissected to collect samples.
Mice in different groups were generated according to the abovementioned methods. The mice in the control group were given normal saline, while the mice in the experimental groups were given bleomycin at different concentrations. Fourteen days after modeling, the mice were intragastrically administered either ddH2O containing 0.3% Tween 80 or RG1678 prepared in ddH2O containing 0.3% Tween 80 via continuous gavage for 14 days; the specific experimental conditions are shown in Table 1.
1. Bleomycin stock solution (10 mg/mL): First, 10 mg of bleomycin was weighed and dissolved in 1 mL of 0.9% sodium chloride. The instillation volume for each mouse was calculated on the basis of its body weight, with the instillation volume per mouse being approximately 50 μL. The stock solution was diluted to 0.5 mg/mL and 2.5 mg/mL for subsequent instillation according to the different groups (1 mg/kg and 5 mg/kg).
3. RG1678 (0.79 mg/mL): An appropriate amount of RG1678 was dissolved in ddH2O containing 0.3% Tween 80 to prepare a stock working solution of 0.79 mg/mL. The intragastric administration volume was then calculated on the basis of the mouse's body weight, with approximately 200 μL per mouse. Before use, the stock solution was diluted to a working concentration of […].
The body weights of the mice were measured before modeling, and their body weights were monitored daily during the experiment to observe changes. A comparison was made between the body weight at the end of the experiment and that at the beginning.
To further observe lung tissue damage in mice in detail, pathological detection was performed on the mouse lung tissues in this example.
Masson staining was performed on mouse lung tissue sections. Masson staining is an experimental method used to detect the secretion and deposition levels of collagen fibers in tissues. After treatment with different staining solutions, the overall background of the tissue section appeared red, the cell nuclei were black, and the collagen fibers were blue. The content of collagen fibers can be evaluated on the basis of the depth of the blue color and the scope of its distribution. […]

[2] = tested on: A549 cells; assay: CCK-8 cell proliferation and cytotoxicity analysis of A549 cells; format: cell-based; details: 72 h
Source text: A CCK-8 kit was used to detect cell proliferation and cytotoxicity. Its working principle is as follows: In the presence of an electron coupling reagent, WST-8 (chemical name: 2-(2-methoxy-4-nitrophenyl)-3-(4-nitrophenyl)-5-(2,4-disulfophenyl)-2H-tetrazolium monosodium salt) can be reduced by mitochondrial dehydrogenases to produce a highly water-soluble orange-yellow formazan product. The intensity of the color is proportional to cell proliferation and inversely proportional to cytotoxicity. […] The OD value measured at a wavelength of 450 nm via a microplate reader can indirectly reflect the number of viable cells.
The CCK-8 assay was used to detect the viability of A549 cells after treatment with different concentrations of BLM and GlyT1 inhibitor for 72 h. […] In this example, BLM, which maintained the viability of A549 cells at approximately 80%, was selected for stimulation, and A549 cells were stimulated with 25 μM BLM to establish the cell model. […] At a concentration of 380 nM, the viability of A549 cells was greater than 50%. To obtain stable experimental results more easily, 190 nM GLYT1 IN was selected as the treatment concentration in subsequent studies.

[3] = tested on: A549 cells; assay: Western blot of pulmonary fibrosis-related indicators in the in vitro bleomycin-induced pulmonary fibrosis model; format: cell-based; details: 25 μM BLM + 190 nM GLYT1 IN for 72 h; compared with BLM group
Description: A bleomycin-induced pulmonary fibrosis model was established in vitro, with simultaneous intervention via a GLYT1 inhibitor.
For the in vitro bleomycin-induced pulmonary fibrosis model, A549 cells were divided into […] treatment groups: the NC group (control group: treated with normal saline), the BLM group (bleomycin-treated group: treated with 25 μM BLM for 72 h), and the BLM+GLYT1 IN group (bleomycin and glycine transporter 1 inhibitor-treated group: treated with 25 μM BLM for 72 h and 190 nM GLYT1 IN for 72 h).
Western blotting was used to detect the expression levels of pulmonary fibrosis-related indicators: collagen type I alpha 1 (col1α1), collagen type III alpha 1 (col3α1), collagen type IV alpha 1 (col4α1), E-cadherin (E-Cad), and α-SMA proteins.

[4] = intervention initiated 14 days after BLM modeling, lung paraffin sections
[5] = treatment for 14 days from day 14 after modeling, compared with BLM group

## C[C@H](Oc1ccc(S(C)(=O)=O)cc1C(=O)N1CCN(c2ncc(C(F)(F)F)cc2F)CC1)C(F)(F)F [RG1678]
[1]; compared with BLM group, listed as GLYT1 IN
  collagen deposition in lung tissue (Masson staining): not obvious
[1]; compared with BLM group, listed as GlyT1 inhibitor 1
  collagen deposition in lung tissue (Masson staining): significantly reduce
[1]; BLM 1 or 5 mg/kg, compared with BLM group
  body weight: less pronounced decrease
[1]; BLM 1 or 5 mg/kg, compared with BLM group, listed as GLYT1 IN
  body weight: significantly greater
[1]; BLM 1 or 5 mg/kg, inhibitor by gavage for 14 days from day 14 after modeling, compared with BLM group (**P<0.01, ***P<0.001)
  change in lung weight/body weight ratio: significantly alleviated
[1]; BLM+RG1678 group compared with BLM group
  general condition changes after modeling (delayed responses, huddling, trembling, cyanosis, decreased food intake, wrinkled skin): milder degrees
[1]; [4]
  BLM-induced lung tissue consolidation (HE staining): reduced
  degree of fibrosis (HE staining): significantly alleviated
[1]; intervention initiated 14 days after modeling, compared with BLM stimulation
  collagen deposition in lung tissue (Sirius Red staining): significantly reduced
[1]; [5]
  deposition of type I collagen in lung tissue (immunohistochemistry): significantly lower
  deposition of type III collagen in lung tissue (immunohistochemistry): significantly lower
[2]; human, 380 nM
  viability of A549 cells: greater than 50%
[3]
  E-cadherin protein expression level: significantly increased
  col1α1 protein expression level: significantly decreased
  col3α1 protein expression level: significantly decreased
  col4α1 protein expression level: significantly decreased
  α-SMA protein expression level: significantly decreased

## bleomycin
[2]; 10 μM bleomycin
  viability of A549 cells: significantly affected
[2]; 25 μM BLM
  viability of A549 cells: approximately 80%
[2]; increasing concentrations
  viability of A549 cells with increasing concentrations: decreased
